We go through 16 compounds from patent publication US12570648B2, “6,7-dihydro-5H-pyrido[2,3-c]pyridazine derivatives and related compounds as Bcl-xL protein inhibitors and pro-apoptotic agents for treating cancer” (LES LABORATOIRES SERVIER, priority 2019, dated 2026).

The test system of one assay is MOLT-4 cells. As to the kind of experiment: MOLT-4 cell viability using MTT assay. The note with it: Homo sapiens, MOLT-4, 48 h, 48 h exposure. Type of assay: cell-based. Here is the method:
MTT colorimetric assay is based on the mitochondrial reduction of tetrazolium salt by living cells.
Cells were cultured at 37° C. in a humidified atmosphere containing 5% CO2. […] At the end of incubation time, 15 μL of MTT solution (5 mg/ml) were added per well and the cells were incubated for another 4 h. […] IC50s were calculated using standard four-parametric curve fitting.

Assay [1] addresses His-His-(EK)-hsBCLXL(2-197)[N197C] (Homo sapiens (Human), UniProt Q07817, N197C). Briefly: Fluorescence quenching assay. Type of assay: binding. The following applies: 1 nM Cy5-labelled protein, 400 nM PUMA peptide, 2 hours at 23° C.; KI determined from IC50. The source says:
Fluorescence quenching assay measures the change in fluorescence intensity of C-terminally Cy5-labelled BCL-xL protein, His-His-(EK)-hsBCLXL(2-197)[N197C] (UniProtKB®
which is linked in C-terminal region to the amino acid X which corresponds to a cysteine labelled on the sulfur with Sulfo-Cyanine5 from Lumiprobe GmbH catalogue number 13380, upon binding of a C-terminally labelled peptide derived from PUMA (UniProtKB® primary accession number Q9BXH1) having an aminoacid sequence (SEQ ID:04): [[…]] which is linked in C-terminal region to the amino acid X′ where X′ is cysteine labelled on the sulfur with TQ5WS from AAT Bioquest catalogue number 2079.
The addition of a compound which binds competitively to the same site as the peptide will result in an increase in the fluorescence intensity of the protein due to displacement of the fluorescence quencher.
An 11-point serial dilution of each compound was prepared in DMSO, the final buffer conditions were 10 mM 4-(2-hydroxyethyl)-1-piperazineethanesulfonic acid [HEPES], 150 mM NaCl, 0.05% Tween 20, pH 7.4 and 5% DMSO. The final protein concentration in the assay was 1 nM with the peptide present at 400 nM. The experiments were incubated for 2 hours at 23° C. before fluorescence intensity was measured on a Biotek SynergyNeo plate reader (Excitation 620 nm, emission 680 nm). […] The K1 values were determined from the IC50 values according to Cer et al, Nucleic Acids Res, 2009, Jul. 1; 37 (WebServer issue): W441-W445.

As a reminder, the IC50 is the concentration that inhibits the measured activity by half. The low end stands for higher potency, the high end for lower potency. Usually Ki stands for the dissociation constant of the complex between target and ligand, obtained from inhibition or displacement.

His-His-(EK)-hsBCLXL(2-197)[N197C], sequence (Q07817 2-197 N197C): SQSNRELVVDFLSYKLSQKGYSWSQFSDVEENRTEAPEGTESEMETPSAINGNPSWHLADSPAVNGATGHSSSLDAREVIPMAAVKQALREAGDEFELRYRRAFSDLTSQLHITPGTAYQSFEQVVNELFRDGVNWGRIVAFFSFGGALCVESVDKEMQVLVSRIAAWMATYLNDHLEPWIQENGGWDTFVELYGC

In turn, `Cc1c(Nc2nc3ccccc3s2)nnc2c1CCCN2c1ccc(-c2cnn(CC34CC5(C)CC(C)(C3)CC(OCCN(C)C)(C5)C4)c2C)c(C(=O)O)n1` [Example 95, 6-{3-[(1,3-benzothiazol-2-yl)amino]-4-methyl-6,7-dihydropyrido[2,3-c]pyridazin-8(5H)-yl}-3-[1-({3-[2-(dimethylamino)ethoxy]-5,7-dimethyladamantan-1-yl}methyl)-5-methyl-1H-pyrazol-4-yl]pyridine-2-carboxylic acid] yielded a 50% inhibitory concentration (IC50) with MOLT-4 cells of 0.205 nM. Besides, the Ki in assay [1] turned out to be 0.0056 nM.
The corresponding values for `Cc1c(Nc2nc3ccccc3s2)nnc2c1CCCN2c1ccc(-c2cnn(CC34CC5(C)CC(C)(C3)CC(OCCNCCS(=O)(=O)O)(C5)C4)c2C)c(C(=O)O)n1` [Example 96, 6-{3-[(1,3-benzothiazol-2-yl)amino]-4-methyl-6,7-dihydropyrido[2,3-c]pyridazin-8(5H)-yl}-3-{1-[(3,5-dimethyl-7-{2-[(2-sulfoethyl)amino]ethoxy}adamantan-1-yl)methyl]-5-methyl-1H-pyrazol-4-yl}pyridine-2-carboxylic acid] are 8.27 nM and 0.0022 nM.
In turn, `CCNC(C)(C)C#Cc1ccc(OCCCc2sc(N3CCCc4c3nnc(Nc3nc5ccccc5s3)c4C)nc2C(=O)O)c(F)c1` [Example 102, 2-{3-[(1,3-benzothiazol-2-yl)amino]-4-methyl-6,7-dihydropyrido[2,3-c]pyridazin-8(5H)-yl}-5-(3-{4-[3-(ethylamino)-3-methylbut-1-yn-1-yl]-2-fluorophenoxy}propyl)-1,3-thiazole-4-carboxylic acid] showed an IC50 in the assay on MOLT-4 cells of 0.268 nM. The Ki in assay [1] stood at 0.0045 nM.
For `Cc1c(Nc2nc3ccccc3s2)nnc2c1CCCN2c1nc(C(=O)O)c(CCCOc2ccc(C#CCN(CC[C@H](O)CO)CC[C@H](O)CO)cc2F)s1` [Example 125, 2-{3-[(1,3-benzothiazol-2-yl)amino]-4-methyl-6,7-dihydro-5H-pyrido[2,3-c]pyridazin-8-yl}-5-{3-[4-(3-{bis[(3S)-3,4-dihydroxybutyl]amino}prop-1-yn-1-yl)-2-fluorophenoxy]propyl}-1,3-thiazole-4-carboxylic acid], the IC50 with MOLT-4 cells was found to be 9.53 nM. In addition, the Ki in assay [1] came to 0.0067 nM.
The like results for `COC(=O)c1nc(N2CCCc3c2nnc(Nc2nc4ccccc4s2)c3C)sc1CCCOc1ccc(C#CCN)cc1F` [Example 126, methyl 5-[3-[4-(3-aminoprop-1-ynyl)-2-fluoro-phenoxy]propyl]-2-[3-(1,3-benzothiazol-2-ylamino)-4-methyl-6,7-dihydro-5H-pyrido[2,3-c]pyridazin-8-yl]thiazole-4-carboxylate] were, in that order, 53.3 nM and 0.067 nM.
`Cc1c(Nc2nc3ccccc3s2)nnc2c1CCCN2c1ccc(-c2cnn(CC34CC5(C)CC(C)(C3)CC(OCCN3CCCC3)(C5)C4)c2C)c(C(=O)O)n1` [Example 127, 6-[3-(1,3-benzothiazol-2-ylamino)-4-methyl-6,7-dihydro-5H-pyrido[2,3-c]pyridazin-8-yl]-3-[1-[[3,5-dimethyl-7-(2-pyrrolidin-1-ylethoxy)-1-adamantyl]methyl]-5-methyl-pyrazol-4-yl]pyridine-2-carboxylic acid] gave an IC50 in the assay with MOLT-4 cells of 0.137 nM. Further, the inhibition constant (Ki) in assay [1] is 0.0021 nM.
Regarding `Cc1c(Nc2nc3ccccc3s2)nnc2c1CCCN2c1ccc(-c2cnn(CC34CC5(C)CC(C)(C3)CC(OCCN3CCN(C)CC3)(C5)C4)c2C)c(C(=O)O)n1` [Example 128, 6-[3-(1,3-benzothiazol-2-ylamino)-4-methyl-6,7-dihydro-5H-pyrido[2,3-c]pyridazin-8-yl]-3-[1-[[3,5-dimethyl-7-[2-(4-methylpiperazin-1-yl)ethoxy]-1-adamantyl]methyl]-5-methyl-pyrazol-4-yl]pyridine-2-carboxylic acid], the IC50 in the assay on MOLT-4 cells turned out to be 0.284 nM. The Ki in assay [1] turned out to be 0.0018 nM.
The like results for `Cc1c(Nc2nc3ccccc3s2)nnc2c1CCCN2c1nc(C(=O)O)c(CCCOc2ccc(C#CCNCC[C@H](O)CO)cc2F)s1` [Example 129, 2-[3-(1,3-benzothiazol-2-ylamino)-4-methyl-6,7-dihydro-5H-pyrido[2,3-c]pyridazin-8-yl]-5-[3-[4-[3-[[(3S)-3,4-dihydroxybutyl]amino]prop-1-ynyl]-2-fluoro-phenoxy]propyl]thiazole-4-carboxylic acid] were, in that order, 3.11 nM and 0.0047 nM.
The corresponding values for `Cc1c(Nc2nc3ccccc3s2)nnc2c1CCCN2c1ccc(-c2cnn(CC34CC5(C)CC(C)(C3)CC(OCCN(C)CC[C@@H](O)CO)(C5)C4)c2C)c(C(=O)O)n1` [Example 130, 6-[3-(1,3-benzothiazol-2-ylamino)-4-methyl-6,7-dihydro-5H-pyrido[2,3-c]pyridazin-8-yl]-3-[1-[[3-[2-[[(3R)-3,4-dihydroxybutyl]-methyl-amino]ethoxy]-5,7-dimethyl-1-adamantyl]methyl]-5-methyl-pyrazol-4-yl]pyridine-2-carboxylic acid] are 1.94 nM and 0.0023 nM.
The corresponding values for `Cc1c(Nc2nc3ccccc3s2)nnc2c1CCCN2c1nc(C(=O)O)c(CCCOc2ccc(C#CCNCC[C@@H](O)CO)cc2F)s1` [Example 131, 2-[3-(1,3-benzothiazol-2-ylamino)-4-methyl-6,7-dihydro-5H-pyrido[2,3-c]pyridazin-8-yl]-5-[3-[4-[3-[[(3R)-3,4-dihydroxybutyl]amino]prop-1-ynyl]-2-fluoro-phenoxy]propyl]thiazole-4-carboxylic acid] are 0.275 nM and 0.0045 nM.
In the assay on MOLT-4 cells, `Cc1c(Nc2nc3ccccc3s2)nnc2c1CCCN2c1ccc(-c2cnn(CC34CC5(C)CC(C)(C3)CC(OCCNCCCCO)(C5)C4)c2C)c(C(=O)O)n1` [Example 132, 6-[3-(1,3-benzothiazol-2-ylamino)-4-methyl-6,7-dihydro-5H-pyrido[2,3-c]pyridazin-8-yl]-3-[1-[[3-[2-(4-hydroxybutylamino)ethoxy]-5,7-dimethyl-1-adamantyl]methyl]-5-methyl-pyrazol-4-yl]pyridine-2-carboxylic acid] yielded a concentration for half-maximal inhibition (IC50) of 1.32 nM. The Ki in assay [1] was 0.002 nM.
The compound `Cc1c(Nc2nc3ccccc3s2)nnc2c1CCCN2c1ccc(-c2cnn(CC34CC5(C)CC(C)(C3)CC(OCCNCC(CO)CO)(C5)C4)c2C)c(C(=O)O)n1` [Example 133, 6-[3-(1,3-benzothiazol-2-ylamino)-4-methyl-6,7-dihydro-5H-pyrido[2,3-c]pyridazin-8-yl]-3-[1-[[3-[2-[[3-hydroxy-2-(hydroxymethyl)propyl]amino]ethoxy]-5,7-dimethyl-1-adamantyl]methyl]-5-methyl-pyrazol-4-yl]pyridine-2-carboxylic acid] returned an IC50 in the assay with MOLT-4 cells of 1.68 nM. Further, the Ki in assay [1] turned out to be 0.0021 nM.
The corresponding values for `Cc1c(Nc2nc3ccccc3s2)nnc2c1CCCN2c1ccc(-c2cnn(CC34CC5(C)CC(C)(C3)CC(OCCN(CCO)CCO)(C5)C4)c2C)c(C(=O)O)n1` [Example 134, 6-[3-(1,3-benzothiazol-2-ylamino)-4-methyl-6,7-dihydro-5H-pyrido[2,3-c]pyridazin-8-yl]-3-[1-[[3-[2-[bis(2-hydroxyethyl)amino]ethoxy]-5,7-dimethyl-1-adamantyl]methyl]-5-methyl-pyrazol-4-yl]pyridine-2-carboxylic acid] are 1.57 nM and 0.0028 nM.
The corresponding values for `Cc1c(Nc2nc3ccccc3s2)nnc2c1CCCN2c1ccc(-c2cnn(CC34CC5(C)CC(C)(C3)CC(OCCNC(CO)CO)(C5)C4)c2C)c(C(=O)O)n1` [Example 135, 6-[3-(1,3-benzothiazol-2-ylamino)-4-methyl-6,7-dihydro-5H-pyrido[2,3-c]pyridazin-8-yl]-3-[1-[[3-[2-[[2-hydroxy-1-(hydroxymethyl)ethyl]amino]ethoxy]-5,7-dimethyl-1-adamantyl]methyl]-5-methyl-pyrazol-4-yl]pyridine-2-carboxylic acid] are 3.05 nM and 0.0018 nM.
In turn, `Cc1c(Nc2nc3ccccc3s2)nnc2c1CCCN2c1ccc(-c2cnn(CC34CC5(C)CC(C)(C3)CC(OCCNCCOCCO)(C5)C4)c2C)c(C(=O)O)n1` [Example 136, 6-[3-(1,3-benzothiazol-2-ylamino)-4-methyl-6,7-dihydro-5H-pyrido[2,3-c]pyridazin-8-yl]-3-[1-[[3-[2-[2-(2-hydroxyethoxy)ethylamino]ethoxy]-5,7-dimethyl-1-adamantyl]methyl]-5-methyl-pyrazol-4-yl]pyridine-2-carboxylic acid] showed an IC50 with MOLT-4 cells of 1.25 nM. Besides, the Ki in assay [1] came to 0.0014 nM.
`CC(=O)N(C)CC#Cc1ccc(OCCCc2sc(N3CCCc4c3nnc(Nc3nc5ccccc5s3)c4C)nc2C(=O)O)c(F)c1` [Example 139, 5-[3-[4-[3-[acetyl(methyl)amino]prop-1-ynyl]-2-fluoro-phenoxy]propyl]-2-[3-(1,3-benzothiazol-2-ylamino)-4-methyl-6,7-dihydro-5H-pyrido[2,3-c]pyridazin-8-yl]thiazole-4-carboxylic acid]: the IC50 in the assay with MOLT-4 cells came out at 0.995 nM. Moreover, the Ki in assay [1] turned out to be 0.02 nM.
